Reference: US20200022964A1, “COMPOSITIONS AND METHODS FOR TREATMENT OF INFLAMMATORY AUTOIMMUNE DISEASES” (New York University, priority 2018, published 2020)

What was measured:
[1] = target: T1, cPLA2 (Homo sapiens, UniProt P47712); test: cPLA2 activity assay in cPLA2-transfected RAW264.7 cells; assay type: cell-based; settings: TNF-α 10 ng/ml; TFD 0.1 or 1 μM, FFD 1 or 10 μM overnight
T1 construct: expressed in transfected cells; host or cells: RAW264.7
Experimental: cPLA2 activity assay. RAW264.7 cells were transfected with an expression plasmid encoding cPLA2. 24 hours later, the transfected cells were treated with TNF-α (10 ng/ml) and ATK (1 μM), or TFD (0.1 μM or 1 μM), or FFD (1 μM or 10 μM) overnight. Then the cells were collected and lysed. Cell lysate was used for measurement of cPLA2 activity using a commercial ELISA kit (765021, Cayman Chemical). Briefly, protein concentration of the cell lysate was measured by bicinchoninic acid assay and equal amounts of protein from each lysate sample were incubated with cPLA2 substrate (Arachidonoyl Thio-PC) at room temperature. One hour later, DTNB/EGTA was added to stop the enzyme catalysis, and then the absorbance was read at 414 nm using a plate reader (SpectraMax i3x, 5025027A, Molecular Devices).

[2] = test system: TNF-α; test: TNF-α induced cytokine expression and release in RAW264.7 cells (incl. H1R1 siRNA and cPLA2 knockout); assay type: cell-based; settings: FFD 10 μM; for effect of suppression of H1R1 on the inhibition of TNF-induced cytokine release: RAW264.7 cells with H1R1 siRNAs
Experimental: qRT-PCR. Total RNA was extracted by RNeasy plus mini kit (74106, QIAGEN) and cDNA was synthesized using SuperScript® Reverse Transcriptase (M314C, promega Corporation). SYBR® Green PCR Master Mix (4309155, Applied Biosystems) was used to perform quantitative real-time PCR (qRT-PCR) and the reaction was performed on a StepOnePlus™ real-time PCR Systems (Applied Biosystems). The mRNA expression level of target genes was calculated by ΔΔCT and fold changes of mRNA levels were normalized to GAPDH.
Knock down of H1R1 by siRNA. BMDMs were transfected with siH1R1, or scrambled control siRNA (scRNAi) using lipofectamine 2000 (11668-019, Invitrogen) according to manufacturer's specifications. After 24 hours, supernatants and lysate were collected to detect cytokine secretion and protein expression, respectively.
Knock out of cPAL2 by CRISPR-Cas9. Knockout cells were generated in accordance with a previously published protocol. gRNA was inserted into the lentiCRISPR v2 vector. Packaging the inserted vector into lentivirus was completed by co-transfecting the lentiCRISPR v2, VSVG and ΔR6.7 in 293T cells. After packaging, we transfected the virus into RAW264.7 cells over 8 hours. Puromycin (2 μg/ml) was used to select the stably transfected RAW264.7 cells

[3] = test system: TNFRs expressed on cell surface; test: Flow cytometry of biotin-labelled TNF-α binding to RAW264.7 cell surface; assay type: cell-based; settings: RAW264.7 cells; FFD 10 μM, TFD 1 μM overnight
Experimental: Flow cytometry. […] RAW 264.7 cells were seeded in a 12-well plate. […] Then the samples were analyzed at NYU core facilities using a FACS Calibur cell analyzer with CellQuest software.

[4] = test system: TNF-α/NF-κB pathway; test: TNF-tg:NF-κB-Luc double mutant mice, luciferase imaging by IVIS; assay type: in vivo; settings: for in vivo inhibition of the TNF-α/NF-κB pathway: FFD 2 or 10 mg/kg, TFD 10 or 50 mg/kg orally for 7 days; for TNF-tg:NF-κB activated luciferase in vivo: third round screen, treatment for 7 days
Text: In vitro and in vivo screen of FDA-approved drug library. NF-κB-bla THP-1 cell line in which NF-κB beta-lactamase reporter gene was stably integrated, RAW 264.7 macrophages in which NF-κB luciferase reporter gene was transiently transfected, and TNF-tg:NF-κB-Luc double mutant reporter mice were employed to screen the drug library.
Screening and confirming the drugs' anti-TNF activity in vivo. TNF-tg mice and NF-κB luc mice were purchased from Jackson Laboratory and housed in Skirball Animal Facility of New York University Langone Medical Center. All animal experiments have been approved by Institutional Animal Care and Use Committee (IACUC) of New York University School of Medicine. We generated the TNF-tg/NF-κB-Luc mice by mating TNF-tg mice with NF-κB-Luc mice. After genotypes were confirmed by genotyping and bioluminescence via IVIS, the TNF-tg/NF-κB-Luc mice were orally treated daily with one of the 8 drugs selected in screen two for 7 days. The luciferase activity was detected by IVIS 15 minutes after the injection of D-Luciferin (LUCK-1G, Gold biotechnology).

[5] = test system: TNF-α; test: ELISA of TNF-α induced release of IL-1β and IL-6 in BMDMs; assay type: cell-based, mice; settings: TNF-α 10 ng/mL; for TNF-α induced releases of IL-1β and IL-6: FFD 1, 10 μM, TFD 0.1, 1 μM, 48 hours
Experimental: Primary bone marrow derived macrophages (BMDMs) extraction. BMDMs were isolated from C57BL/6 and TNF-tg mice. After mice were sacrificed by cervical dislocation, the tibia and femur were isolated and both ends of the bones were cut to open the medullary cavity. Bone marrow cells were collected by centrifuge at 13000 g for 90 seconds and seeded in 6-well plates. Prior to their use in experiments, M-CSF (10 ng/ml, 576406, Biolegend) was added for 6 days to the BMDM culture medium.

[6] = test system: osteoclastogenesis in BMDMs; test: Osteoclastogenesis in BMDMs (TRAP staining); assay type: cell-based, mice; settings: RANKL 100 ng/mL and TNF-α 10 ng/mL; FFD 10 μM, TFD 1 μM; 4 days
Experimental: Osteoclastogenesis. […] The cells were fixed with formalin and stained for tartrate-resistant acid phosphatase (TRAP) with a TRAP solution containing 100 mM sodium acetate buffer (pH 5.0), 50 mM sodium tartrate, 0.1 mg/ml sodium naphtol AS-MX phosphate, 0.6 mg/ml Fast Violet LB, and 0.1% Triton X-100. TRAP-positive cells appeared dark red and TRAP-positive multinucleated cells containing more than three nuclei (TRAP-MNCs) were visualized using light microscopy.

T1 sequence (P47712 whole entry): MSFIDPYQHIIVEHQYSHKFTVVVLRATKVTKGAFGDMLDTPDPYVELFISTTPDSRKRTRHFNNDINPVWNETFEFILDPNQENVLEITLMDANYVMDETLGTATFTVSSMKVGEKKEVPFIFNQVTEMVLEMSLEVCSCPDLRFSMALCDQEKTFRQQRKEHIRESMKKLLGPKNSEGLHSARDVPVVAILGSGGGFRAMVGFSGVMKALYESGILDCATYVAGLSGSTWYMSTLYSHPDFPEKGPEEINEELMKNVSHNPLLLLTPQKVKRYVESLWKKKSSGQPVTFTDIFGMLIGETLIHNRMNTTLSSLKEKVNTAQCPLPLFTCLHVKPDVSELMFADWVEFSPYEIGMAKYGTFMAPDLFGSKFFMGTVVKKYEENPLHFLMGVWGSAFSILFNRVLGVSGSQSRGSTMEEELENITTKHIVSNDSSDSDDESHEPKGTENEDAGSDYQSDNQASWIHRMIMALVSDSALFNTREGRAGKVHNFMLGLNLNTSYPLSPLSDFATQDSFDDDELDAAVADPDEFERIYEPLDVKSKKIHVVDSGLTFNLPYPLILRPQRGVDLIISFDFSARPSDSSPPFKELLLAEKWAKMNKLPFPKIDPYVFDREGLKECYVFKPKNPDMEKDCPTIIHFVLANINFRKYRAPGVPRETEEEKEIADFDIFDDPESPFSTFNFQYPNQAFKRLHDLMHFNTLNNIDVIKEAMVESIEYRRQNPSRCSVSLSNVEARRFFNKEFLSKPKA

Row | TNF-α induced cPLA2 activity [1] | SMILES | effect of suppression of H1R1 on the inhibition of TNF-induced cytokine release [2] | inhibition of TNF-α activity (IL-1β, IL-6 release) in cPLA2 knockout cells ([2]; cPLA2 KO RAW264.7 cells) | binding of TNF-α to the cell surface [3] | in vivo inhibition of the TNF-α/NF-κB pathway [4] | TNF-tg:NF-κB activated luciferase in vivo [4] | effect of AA supplementation on inhibition of TNF-α induced release of IL-1β and IL6 ([5]; AA 10 μM, FFD 10 μM) | TNF-α induced releases of IL-1β and IL-6 [5] | TNF-α-mediated osteoclastogenesis [6]
1 | completely abolished | CC(C)(C(=O)O)c1ccc(C(O)CCCN2CCC(C(O)(c3ccccc3)c3ccccc3)CC2)cc1 (stereo not shown) [fexofenadine] | did not affect | entirely or almost entirely lost | did not affect | dose-dependent inhibition | effectively inhibit | eliminated the inhibitory influence | abolished | markedly inhibited
2 | completely abolished | CC(C)(C)c1ccc(C(O)CCCN2CCC(C(O)(c3ccccc3)c3ccccc3)CC2)cc1 (stereo not shown) [terfenadine] | did not affect | – | did not affect | dose-dependent inhibition | effectively inhibit | – | abolished | markedly inhibited
